Here are results for one compound from US7947719B2, “Biologically active compounds obtainable from Sorangium cellulosum” (Hemholtz-Zentrum fur Infektionsforschung GmbH, priority 2005, dated 2011).

Assay type in all cases: cell-based
Test [1] deals with mouse fibroblast cell line L929 (ATCC CCL 1). The experiment in a line: Toxicity against mouse fibroblast cell line L929. The note with it: L929 (ATCC CCL 1) mouse fibroblasts; read-out: inhibitory concentration IC50 (toxicity). On the procedure:
The toxicity tested against the mouse fibroblast cell line L929 (ATCC CCL 1) according to Sasse et al. (J. Antibiotics 56:827-831 (2003)), an inhibitory concentration IC50 of 30 pg/mL was determined.

Test [2] relates to Saccharomyces cerevisiae. The experiment in a line: Minimal inhibitory concentration against micro-organisms. The source says:
(§1) As an example for compounds according to the invention, Disorazole Z has been analyzed for biological activity following the methods as disclosed in Irschik et al. (The Sorangicins, novel and powerful inhibitors of eubacterial RNA polymerase isolated from myxobacteria, J. Antibiotics 40: 7-13 (1987)). The following minimal inhibitory concentrations against organisms were found: […]

Test [3] concerns Staphylococcus aureus. Described as above.
From the text: as §1

Test [4] relates to Escherichia coli (DMSZ 5347). The test is described as above.
From the text: as §1

Test [5] deals with Rhodotorula glutinis. Described as above.
From the text: as §1

Test [6] deals with Mucor hiemalis. The test is described as above.
From the text: as §1

Test [7] relates to Botrytis cinerea. Described as above.
From the text: as §1

The test system of test [8] is Pythium debaryanum. The test is described as above. The note with it: Globisporangium debaryanum.
From the text: as §1

In brackets after ≈: the same amount, converted by molar mass.

For orientation: MIC means the smallest concentration in the dilution series that meets the test's criterion for growth inhibition. Read a low MIC as greater potency. On to `C/C=C/C(O)C(C)(C(=O)OC)C1C\C=C/C=C/C=C/c2nc(co2)C(=O)OC(C(C)(C(=O)OC)C(O)/C=C/C)C\C=C/C=C/C=C/c2nc(co2)C(=O)O1` (centres unmarked) [Disorazole Z], for which the IC50 in test [1] was found to be 0.03 ng/mL (≈ 4.02e-05 µM). In addition, the MIC in test [2] was greater than 6 µg/mL; in test [3] it was greater than 25 µg/mL; in test [4], greater than 25 µg/mL; in test [5], 3 µg/mL (≈ 4.02 µM); in test [6], greater than 6 µg/mL; in test [7], 6 µg/mL (≈ 8.03 µM). The same compound registered an MIC in test [8] of 3 µg/mL (≈ 4.02 µM).
